Source: US5498632A, “Esters of acyl carnitines with long-chain aliphatic alcohols and pharmaceutical compositions containing same having antibacterial activity” (Sigma-Tau Industrie Farmaceutiche Riunite S.p.A., priority 1992, dated 1996)

How the values were obtained:
[1] = test system: H. pylori planktonic cells (NCTC 11637); assay: Bactericidal effect against H. pylori planktonic cells; assay type: cell-based, Helicobacter pylori
Excerpt: (§1) The investigation aimed at evaluating the difference in susceptibility to ST 722 of planktonic and sessile Helicobacter cells, using in the latter case an "in vitro" experimental model, which closely resembled the clinical condition occurring "in vivo" in type-B gastritis. We used HEp-2 cells, an epithelial cell line which harbors the same membrane glycolipid receptors for H. pylori as those harbored by the mucous cells of the antral gastric mucosa (MEGRAUD, F., TRIMOULET, P., LAMOULIATTE, H. and BOYANOVA, L., 1991. Bacterial effect of Amoxicillin on "H. pylori" in an in vitro model using epithelial cells. Antimicrob. Agents Chemoter. 35 (5): 869-872 and LINGWOOD, C. A., LAW, H. and PELLIZANI, A., 1989. Gastric glycerolipid as a receptor for Campylobacter pylori. Lancet i: 238-241). Additionally, the viability of HEp-2 cells (either infected or not) was evaluated following "in vitro" ST 722 treatment. The degree of cytotoxicity was assessed by cytofiuorimetric analysis of Propidium Iodine-stained HEp-2 cells.
(§2) Helicobacter pylori NCTC 11637.
(§3) The antibacterial and cytotoxic activity of ST 722 against Helicobacter and HEp-2 cells, respectively, was evaluated by using 3 different ST 722 concentrations, namely 0.1, 1.56 (i.e. the MIC value vs. H. pylori NCTC 11637) and 4 mcg/ml.
(§4) After making geometric dilutions of the suspensions (0.1 ml of each dilution inoculated onto each plate in triplicate), the plates were incubated for 7 days in a microaerobic atmosphere, and the plates with 30 to 200 CFU were counted.
(§5) The ST 722 activity against Helicobacter planktonic cells was determined in the same experimental conditions in the absence of HEp-2 cells. Finally, the results are expressed as CFU per flask of each sample with respect to the relevant control (i.e. sessile or planktonic cultures).

[2] = test system: lymphoid organs (spleen and thymus), splenocytes; assay: Test 3: body, spleen and thymus weight and splenocyte concentration; assay type: in vivo, mouse (male B6 D2 F1); details: 100 mg/kg/day for 5 consecutive days, oral
Procedure: Evaluation of the effect of repeated oral administrations of ST 722 on the body, spleen and thymus weight, and on the splenocyte concentration in mice.
Male B6 D2 F1 mice (C. River) aged 10 weeks (5 animals each group) were orally treated with the substance ST 722 at the dose of 100 mg/kg/day for 5 consecutive days. Twenty-four hours after the last administration, the animals were sacrificed, the organs removed and weighed, and the splenocyte number determined.

[3] = test system: H. pylori sessile cells (NCTC 11637); assay: Bactericidal effect against H. pylori sessile cells (attached to HEp-2); assay type: cell-based, Helicobacter pylori
Excerpt: as §1
An HEp-2 epithelial cell line (a human larynx carcinoma) was used to permit the attachment of Helicobacter cells (sessile cells).
as §2, §3
A confluent HEp-2 cell culture is prepared, which is obtained after incubating the cell line in tissue culture flasks for 24 hours (37° C., 10% CO2, and ~96% humidity) in Columbia agar medium supplemented with Vitox and 7% defribinated horse serum. The bacteria are first harvested with DMEM medium 10% FCS, and then inoculated onto the HEp-2 cells to obtain a concentration of 5.0×10^6 CFU per flask (i.e. 2.0×10^5 CFU/cm^2).
Bacterial adhesion to the epitelial cells is favored by incubation for 2 hours at 37° C. and 5% CO2. After washing to remove the non attached bacteria. ST 722 is added (5 ml of 3 different concentrations) to the HEp-2 cell culture flasks.
Two additional flasks are added with 5 ml medium lacking ST 722, as Helicobacter growth controls.
At a predetermined time, the flasks were taken, the medium was discarded, and the cells were washed. The cells were harvested with a rubber policeman in 1 ml of phosphate-buffered saline and disrupted with an Ultraturax homogenizer.
as §4, §5

[4] = Assessment of behaviour and mortality in mice (Irwin's method); design: species or system mouse (male Crl:(CD-1)(ICR)BR); details: mouse, in vivo; oral, dose 1000, 4 animals/dose
Procedure: (§6) The assessment of normal behaviour in mice was carried out following S. Irwin's method (Psychopharmacologia, 13, 222 [1968]). This method allows alterations in some behavioural, neurophysiologic and neurovegetative parameters to be detected, which are directly observable by the researcher. The study was conducted using male Crl:(CD-1)(ICR)BR mice (Charles River--Italy) weighing 22-25 g, following oral administration of the compounds suspended in carboxymethylcellulose (0.5% by weight in H2 O) to groups of 4 animals/dose.
(§7) The animals were continously kept under observation for five hours following treatment and twice a day in the subsequent five days. Mortality was also observed during the overall test period.

mice = assay: as above; design: species or system mouse (male Crl:(CD-1)(ICR)BR); details: mouse, in vivo, po
Procedure: as §6, §7

**Q.** With `CCCCCCCCCCCOC(=O)CC(C[N+](C)(C)C)OC(=O)CC(C)C` [ST 722, Isovaleryl-L-Carnitine Undecyl Ester Chloride] as the molecule, how does the “Planktonic cells (CFU per flask)” value ([1]; 3-h contact, 0.1 mcg/ml) read?
**A.** Its value is 9.50 × 10^5 CFU per flask.

**Q.** And the “Planktonic cells (CFU per flask)” value ([1]; 3-h contact, 1.56 mcg/ml)?
**A.** Its value is 3.50 × 10^5 CFU per flask.

**Q.** What about the “Planktonic cells (CFU per flask)” value ([1]; 3-h contact, 4.0 mcg/ml) of the same molecule?
**A.** Its value is 1.00 × 10^5 CFU per flask.

**Q.** What about the “Planktonic cells (CFU per flask)” value ([1]; 24-h contact, 0.1 mcg/ml) of the same molecule?
**A.** The value was 9.00 × 10^7 CFU per flask.

**Q.** What about the “Planktonic cells (CFU per flask)” value ([1]; 24-h contact, 1.56 mcg/ml) of the same molecule?
**A.** The value was 4.05 × 10^6 CFU per flask.

**Q.** And the “Planktonic cells (CFU per flask)” value ([1]; 24-h contact, 4.0 mcg/ml, control 5.35 × 10^8)?
**A.** Its value is 1.85×10^6 CFU per flask.

**Q.** What about the complete medium sterilization ([1]; planktonic cells) of the same molecule?
**A.** The complete medium sterilization was “a complete medium sterilization was not attained”.

**Q.** And the Body weight [2]?
**A.** The Body weight was 26.50 ± 0.53 g.

**Q.** What about the Spleen weight [2] of the same molecule?
**A.** Its Spleen weight is 73.25 ± 3.84 mg.

**Q.** And the Thymus weight [2]?
**A.** The Thymus weight was 38.80 ± 3.01 mg.

**Q.** And the “specific immunotoxic effects on the considered parameters” value [2]?
**A.** Its value is “lack of specific immunotoxic effects”.

**Q.** And the “Sessile cells (CFU per flask)” value ([3]; 3-h contact, 0.1 mcg/ml)?
**A.** Its value is 9.50 × 10^2 CFU per flask.

**Q.** What about the “Sessile cells (CFU per flask)” value ([3]; 3-h contact, 1.56 mcg/ml) of the same molecule?
**A.** The value was 9.50 × 10^2 CFU per flask.

**Q.** What about the “Sessile cells (CFU per flask)” value ([3]; 3-h contact, 4.0 mcg/ml) of the same molecule?
**A.** The value was 4.50 × 10^2 CFU per flask.

**Q.** What about the “Sessile cells (CFU per flask)” value ([3]; 24-h contact, 0.1 mcg/ml) of the same molecule?
**A.** The value was 4.35 × 10^5 CFU per flask.

**Q.** And the “Sessile cells (CFU per flask)” value ([3]; 24-h contact, 1.56 mcg/ml)?
**A.** The value was 1.80 × 10^5 CFU per flask.

**Q.** What about the “Sessile cells (CFU per flask)” value ([3]; 24-h contact, 4.0 mcg/ml) of the same molecule?
**A.** The value was 1.75 × 10^5 CFU per flask.

**Q.** What about the killing at 4 µg/mL ([3]; Helicobacter pylori, NCTC11637, HEp-2, 3-h contact, 4 mcg/ml, read-out: reduction of number of sessile bacterial cells) of the same molecule?
**A.** The killing at 4 µg/mL was about 50%.

**Q.** What about the mortality at 120 h [4] of the same molecule?
**A.** Its mortality at 120 h is 0%.

**Q.** What about the Symptoms (mice) of the same molecule?
**A.** Its Symptoms is “salivation, diarrhoea”.
